# Read-outs that look alike come from different tables or passages of the source.
# Columns and labels:
# [1] = test system: MCF-7/DOX (adriamycin resistant cell strain); assay: SRB cytotoxicity assay, MCF-7/DOX; format: cell-based; conditions: Homo sapiens, MCF7-DOX, 72 h, read-out: ED50 MCF-7/DOX
# Experimental: (§1) Human tumor cells, including MCF-7 (human breast adenomatous tumor), MCF-7/DOX (adriamycin resistant cell strain), MRS-SA (human uterine sarcoma), MES-SA/DX5 (adriamycin resistant cell strain), A 549 (human non-small cell lung), SKOV-3 (human ovarian), SKMEL-2 (human melanoma), XF-498 (human CNS), HCT-15 (human colon) were incubated at 37° C. in the presence of 5% CO2 using a DMEM culture medium. The respective cells were seeded into each well of 96-well plates at a concentration of 2×10^3˜5×10^3 cells/well. […] Each cell line of the resultant plates was fixed with trichloroacetic acid (TCA), stained with 0.4% SRB solution and rinsed with 1% acetic acid. Thereafter, the dye was dissolved in 10 mM Tris base to measure the optical density (OD) at 520 nm.
# [2] = test system: MCF-7 (human breast adenomatous tumor); assay: SRB cytotoxicity assay, MCF7; format: cell-based; conditions: MCF7, 72 h, read-out: ED50 MCF7
# Experimental: as §1
# [3] = test system: BALB/c mouse spleen cells, B cells activated with lipopolysaccharide (LPS); assay: Immunosuppressive effect test using BALB/c mouse spleen cells, LPS (B cells); format: cell-based; conditions: 20 μg/ml lipopolysaccharide, 72 hours, MTS, FIGS. 2 and 3
# Experimental: (§2) This test was carried out to determine the immunosuppressive effect of an immunosuppressive candidate material by checking anti-proliferation of T cells and B cells. To identify the proliferation inhibitory extent, responding cells (BALB/c mouse spleen cells) were treated with an immunosuppressive candidate material, lipopolysaccharide (LPS) as a B cell activator and concanvalin A (ConA) as a T cell activator. It is known that the responding cells treated with LPS induce proliferation of B cells and those treated with ConA induce proliferation of T cells.
# (§3) Responding cells (BALB/c mouse spleen cells) were seeded into each well of 96-well plates at a concentration of 2×10^5 cells/well. […] After culturing for 72 hours at a CO2 incubator, a 20 μl MTS solution was added to each well, followed by further culturing for 2 to 4 hours and measuring OD at 490 nm using ELISA.
# [4] = test system: TA1535; conditions: TA1525 (so in the source)
# Experimental: (§4) This assay is carried out to test mutagenicity of chemical substances using histidine auxotrophic strains that are one of Salmonella Typhimurium mutants. […] When various mutagens are added to the culture medium, only revertants generated by reverse mutation survive.
# (§5) Ames test was carried out using […]. […] After incubation, the number of revertant colonies was counted. 3 plates were prepared for each test and the average was calculated.
# [5] = test system: TA100
# Experimental: as §4, §5
# [6] = test system: TA98
# Experimental: as §4, §5
# [7] = test system: TA1537; assay: Reverse mutation assay (Ames test), TA1537
# Experimental: as §4, §5
# [8] = test system: BALB/c mouse spleen cell (responding) and DBA/2 mouse spleen cell (stimulating); format: cell-based; conditions: MLR, FIG. 1
# Experimental: MLR tests were carried out to determine the immunosuppressive effect of an immunosuppressive candidate material. When a responding cell (BALB/c mouse spleen cell) and a stimulating cell (DBA/2 mouse spleen cell) were cultured separately, the cells grew little. On the contrary, when the cells were simultaneously cultured, the cells were proliferated due to induction of an antigen-antibody reaction. The proliferated cells were treated with the immunosuppressive candidate material for measurement of the proliferation inhibitory extent.
# After culturing for 72 hours at a CO2 incubator, a 20 μl MTS solution was added to each well, followed by further culturing for 2 to 4 hours and measuring OD at […] by using ELISA.
# [9] = test system: HCT-15 (human colon); assay: SRB cytotoxicity assay, HCT15; format: cell-based; conditions: HCT-15, 72 h, read-out: ED50 HCT15
# Experimental: as §1
# [10] = test system: A 549 (human non-small cell lung); assay: SRB cytotoxicity assay, A549; format: cell-based; conditions: A549, 72 h, read-out: ED50 A549
# Experimental: as §1
# [11] = test system: MES-SA/DX5 (adriamycin resistant cell strain); assay: SRB cytotoxicity assay, MES-SA/DX5; format: cell-based; conditions: Homo sapiens, MES-SA/Dx5, 72 h, read-out: ED50 MES-SA/DX5
# Experimental: as §1
# [12] = test system: ICR mice; assay: Oral administration toxicity assay; conditions: for Days for the test (death) Total: deaths/mice
# [13] = test system: MES-SA (human uterine sarcoma); assay: SRB cytotoxicity assay, MES-SA; format: cell-based; conditions: 72 h, read-out: ED50 MES-SA
# Experimental: as §1
# [14] = test system: BALB/c mouse spleen cells, T cells activated with concanvalin A (ConA); assay: Immunosuppressive effect test using BALB/c mouse spleen cells, ConA (T cells); format: cell-based; conditions: 2 μg/ml of ConA, 72 hours, MTS, FIGS. 2 and 3
# Experimental: as §2, §3
structure (smiles),measurement,setting,value
"COc1cc2c(c(OC)c1OC)-c1ccc(OC)c(=O)cc1[C@@H](NC(=O)c1cccc(CO[N+](=O)[O-])c1)CC2 [Compound 6, 3-nitrooxymethyl-N-(1,2,3,10-tetramethoxy-9-oxo-5,6,7,9-tetrahydro-benzo[a]heptarene-7-yl)-benzamide]",EC50,[1],205 nM
same,EC50,[2],0.02 nM
same,anti-proliferation of B cells,[3],remarkable anti-proliferous effect
same,Colony/Plate S-9 Mixture (+),[4]; 317.5 μg/Plate,14 Colony/Plate
same,Colony/Plate S-9 Mixture (−),[4]; 317.5 μg/Plate,14 Colony/Plate
same,Colony/Plate S-9 Mixture (+),[4]; 625 μg/Plate,12 Colony/Plate
same,Colony/Plate S-9 Mixture (−),[4]; 625 μg/Plate,18 Colony/Plate
same,Colony/Plate S-9 Mixture (+),[4]; 1250 μg/Plate,11 Colony/Plate
same,Colony/Plate S-9 Mixture (−),[4]; 1250 μg/Plate,15 Colony/Plate
same,Colony/Plate S-9 Mixture (+),[4]; 2500 μg/Plate,11 Colony/Plate
same,Colony/Plate S-9 Mixture (−),[4]; 2500 μg/Plate,10 Colony/Plate
same,Colony/Plate S-9 Mixture (+),[4]; 5000 μg/Plate,9 Colony/Plate
same,Colony/Plate S-9 Mixture (−),[4]; 5000 μg/Plate,13 Colony/Plate
same,Colony/Plate S-9 Mixture (+),"[5]; TA100, 317.5 μg/Plate",96 Colony/Plate
same,Colony/Plate S-9 Mixture (−),"[5]; TA100, 317.5 μg/Plate",81 Colony/Plate
same,Colony/Plate S-9 Mixture (+),"[5]; TA100, 625 μg/Plate",84 Colony/Plate
same,Colony/Plate S-9 Mixture (−),"[5]; TA100, 625 μg/Plate",77 Colony/Plate
same,Colony/Plate S-9 Mixture (+),"[5]; TA100, 1250 μg/Plate",81 Colony/Plate
same,Colony/Plate S-9 Mixture (−),"[5]; TA100, 1250 μg/Plate",84 Colony/Plate
same,Colony/Plate S-9 Mixture (+),"[5]; TA100, 2500 μg/Plate",77 Colony/Plate
same,Colony/Plate S-9 Mixture (−),"[5]; TA100, 2500 μg/Plate",88 Colony/Plate
same,Colony/Plate S-9 Mixture (+),"[5]; TA100, 5000 μg/Plate",78 Colony/Plate
same,Colony/Plate S-9 Mixture (−),"[5]; TA100, 5000 μg/Plate",79 Colony/Plate
same,Colony/Plate S-9 Mixture (+),"[6]; TA98, 317.5 μg/Plate",32 Colony/Plate
same,Colony/Plate S-9 Mixture (−),"[6]; TA98, 317.5 μg/Plate",21 Colony/Plate
same,Colony/Plate S-9 Mixture (+),"[6]; TA98, 625 μg/Plate",29 Colony/Plate
same,Colony/Plate S-9 Mixture (−),"[6]; TA98, 625 μg/Plate",32 Colony/Plate
same,Colony/Plate S-9 Mixture (+),"[6]; TA98, 1250 μg/Plate",33 Colony/Plate
same,Colony/Plate S-9 Mixture (−),"[6]; TA98, 1250 μg/Plate",24 Colony/Plate
same,Colony/Plate S-9 Mixture (+),"[6]; TA98, 2500 μg/Plate",22 Colony/Plate
same,Colony/Plate S-9 Mixture (−),"[6]; TA98, 2500 μg/Plate",22 Colony/Plate
same,Colony/Plate S-9 Mixture (+),"[6]; TA98, 5000 μg/Plate",23 Colony/Plate
same,Colony/Plate S-9 Mixture (−),"[6]; TA98, 5000 μg/Plate",19 Colony/Plate
same,Colony/Plate S-9 Mixture (+),"[7]; TA1537, 317.5 μg/Plate",11 Colony/Plate
same,Colony/Plate S-9 Mixture (−),"[7]; TA1537, 317.5 μg/Plate",8 Colony/Plate
same,Colony/Plate S-9 Mixture (+),"[7]; TA1537, 625 μg/Plate",16 Colony/Plate
same,Colony/Plate S-9 Mixture (−),"[7]; TA1537, 625 μg/Plate",10 Colony/Plate
same,Colony/Plate S-9 Mixture (+),"[7]; TA1537, 1250 μg/Plate",13 Colony/Plate
same,Colony/Plate S-9 Mixture (−),"[7]; TA1537, 1250 μg/Plate",16 Colony/Plate
same,Colony/Plate S-9 Mixture (+),"[7]; TA1537, 2500 μg/Plate",17 Colony/Plate
same,Colony/Plate S-9 Mixture (−),"[7]; TA1537, 2500 μg/Plate",11 Colony/Plate
same,Colony/Plate S-9 Mixture (+),"[7]; TA1537, 5000 μg/Plate",14 Colony/Plate
same,Colony/Plate S-9 Mixture (−),"[7]; TA1537, 5000 μg/Plate",7 Colony/Plate
same,immunosuppressive effect,[8],good immunosuppressive effect
same,EC50,[9],0.1 nM
same,EC50,[10],0.1 nM
same,EC50,[11],773 nM
same,Days for the test (death) Total,[12]; 2 mg/kg,0/5
same,Days for the Test (death) 4,"[12]; 5 mg/kg, day 4",1
same,Days for the test (death) Total,[12]; 5 mg/kg,1/5
same,Days for the test (death) 2,"[12]; 10 mg/kg, day 2",1
same,Days for the Test (death) 3,"[12]; 10 mg/kg, day 3",1
same,Days for the test (death) Total,[12]; 10 mg/kg,2/5
same,EC50,[13],0.2 nM
same,anti-proliferation of T cells,[14],remarkable anti-proliferous effect
